In patent US20220213061A9, “HETEROCYCLIC COMPOUNDS FOR MODULATING NR2F6” (TES Pharma S.r.l., priority 2020, published 2022):
Where a name gives a salt, the structure may show the parent alone.

Biological target: T1, recombinant human NR2F6 protein (Homo sapiens, UniProt P10588)
T1 sequence (P10588 1-404): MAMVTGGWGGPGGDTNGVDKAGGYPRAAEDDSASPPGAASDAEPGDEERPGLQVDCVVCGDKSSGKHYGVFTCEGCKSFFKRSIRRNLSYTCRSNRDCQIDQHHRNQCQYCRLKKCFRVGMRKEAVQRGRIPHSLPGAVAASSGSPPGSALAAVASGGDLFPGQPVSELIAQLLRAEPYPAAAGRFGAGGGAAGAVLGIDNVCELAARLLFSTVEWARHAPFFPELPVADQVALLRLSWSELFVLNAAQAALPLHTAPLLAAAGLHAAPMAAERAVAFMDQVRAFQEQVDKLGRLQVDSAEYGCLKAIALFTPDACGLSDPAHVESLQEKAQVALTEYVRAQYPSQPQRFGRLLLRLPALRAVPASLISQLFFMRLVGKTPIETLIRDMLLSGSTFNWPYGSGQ
Assay: Biochemical NR2F6 binding assay (EnSpire label-free)
Details: label-free binding to immobilized purified recombinant human NR2F6; ligands 1 nM to 100 uM, 1% DMSO
How it was run: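 Recombinant human NR2F6 was immobilized at pH 4.5 (50 μg/well, 16 h, 4° C) on label-free biosensor plates. Ligands were tested from 1 nM to 100 uM in 1% DMSO, with readings over 30 minutes. Binding was measured as reflected-wavelength shift (pm), and EC50 was derived from concentration-response curves.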

| Compound | EC50 [µM] |
| --- | --- |
| O=C(N[C@H]1CC[C@H](O)CC1)[C@H]1CNC[C@@H]1c1ccccc1 [Compound I-36, (3R,4S)—N-[(1,4-trans)-4-Hydroxycyclohexyl]-4-phenylpyrrolidine-3-carboxamide hydrochloride] | > 50 |
| O=C(Nc1cccc(-c2ccccc2)c1)[C@H]1CNC[C@@H]1c1ccccc1 [Compound I-37, (3R,4S)—N-(Biphenyl-3-yl)-4-phenylpyrrolidine-3-carboxamide hydrochloride] | 1 to 10 |
| O=C(Nc1cc2ccccc2cn1)[C@H]1CNC[C@@H]1c1ccccc1 [Compound I-38, (3R,4S)—N-(Isoquinolin-3-yl)-4-phenylpyrrolidine-3-carboxamide dihydrochloride] | 1 to 10 |
| O=C(Nc1ccc(-c2cccnc2)cc1)[C@H]1CNC[C@@H]1c1ccccc1 [Compound I-39, (3R,4S)-4-Phenyl-N-[4-(pyridin-3-yl)phenyl]pyrrolidine-3-carboxamide dihydrochloride] | > 50 |
| O=C(Nc1cccc2cnccc12)[C@@H]1CNC[C@H]1c1ccccc1 [Compound I-40, (3S,4R)—N-(Isoquinolin-5-yl)-4-phenylpyrrolidine-3-carboxamide dihydrochloride] | > 50 |
| O=C(Nc1ccc(-c2cccnc2)cc1)[C@@H]1CNC[C@H]1c1ccccc1 [Compound I-41, (3S,4R)-4-Phenyl-N-[4-(pyridin-3-yl)phenyl]pyrrolidine-3-carboxamide dihydrochloride] | 1 to 10 |
| O=C(Nc1cccc(-c2ccccc2)c1)[C@@H]1CNC[C@H]1c1ccccc1 [Compound I-42, (3S,4R)—N-(Biphenyl-3-yl)-4-phenylpyrrolidine-3-carboxamide hydrochloride] | 1 to 10 |
| O=C(Nc1cc2ccccc2cn1)[C@@H]1CNC[C@H]1c1ccccc1 [Compound I-43, (3S,4R)—N-(Isoquinolin-3-yl)-4-phenylpyrrolidine-3-carboxamide dihydrochloride] | 1 to 10 |
| O=C(Nc1cccc2cnccc12)[C@H]1CNC[C@@H]1c1cccs1 [Compound I-44, (3R,4R)—N-(Isoquinolin-5-yl)-4-(thiophen-2-yl)pyrrolidine-3-carboxamide dihydrochloride] | > 50 |
| O=C(Nc1cccc(-c2cccnc2)c1)c1c[nH]cc1-c1ccccc1 [Compound I-51, 4-Phenyl-N-[3-(pyridin-3-yl)phenyl]-1H-pyrrole-3-carboxamide] | > 50 |
| O=C(Nc1cccc2cnccc12)[C@@H]1CNC[C@H]1c1cccs1 [Compound I-56, (3S,4S)—N-(Isoquinolin-5-yl)-4-(thiophen-2-yl)pyrrolidine-3-carboxamide] | > 50 |
| CN(C(=O)[C@H]1CNC[C@@H]1c1ccccc1)c1cccc2cnccc12 [Compound I-57, (3R,4S)—N-(Isoquinolin-5-yl)-N-methyl-4-phenylpyrrolidine-3-carboxamide dihydrochloride] | > 50 |
| O=C(Nc1cccc2cnccc12)[C@H]1CNC[C@@H]1c1nccs1 [Compound I-58, (3R,4R)—N-(Isoquinolin-5-yl)-4-(1,3-thiazol-2-yl)pyrrolidine-3-carboxamide dihydrochloride] | > 50 |
| O=C(Nc1cccc2cnccc12)[C@@H]1CNC[C@H]1c1nccs1 [Compound I-59, (3S,4S)—N-(Isoquinolin-5-yl)-4-(1,3-thiazol-2-yl)pyrrolidine-3-carboxamide dihydrochloride] | > 50 |
| O=C(Nc1cccc2cnccc12)[C@@H]1CNC[C@@H]1c1ccccc1 [Compound I-66, (3S,4S)—N-(Isoquinolin-5-yl)-4-phenylpyrrolidine-3-carboxamide dihydrochloride] | > 50 |
| O=C(NCc1cccc2cnccc12)[C@H]1CNC[C@@H]1c1ccccc1 [Compound I-67, (3R,4S)—N-(Isoquinolin-5-ylmethyl)-4-phenylpyrrolidine-3-carboxamide dihydrochloride] | > 50 |
| O=C(Nc1cccc2ccccc12)[C@H]1CNC[C@@H]1c1ccccc1 [Compound I-74, (3R,4S)—N-(Naphthalen-1-yl)-4-phenylpyrrolidine-3-carboxamide hydrochloride] | 1 to 10 |
| O=C(Nc1cccc2ccccc12)[C@@H]1CNC[C@H]1c1ccccc1 [Compound I-75, (3S,4R)—N-(Naphthalen-1-yl)-4-phenylpyrrolidine-3-carboxamide hydrochloride] | 1 to 10 |
| O=C(Nc1cccc2cnccc12)N1CCC(c2ccccc2)C1 (centres unmarked) [Compound I-79, N-(Isoquinolin-5-yl)-3-phenylpyrrolidine-1-carboxamide] | > 50 |
| O=C(Nc1cccc2cnccc12)[C@H]1CNC[C@@H]1c1ccc(F)cc1 [Compound I-81, (3R,4S)-4-(4-Fluorophenyl)-N-(isoquinolin-5-yl)pyrrolidine-3-carboxamide dihydrochloride] | > 50 |
| O=C(Nc1cccc2cnccc12)[C@H]1CNC[C@@H]1c1ccc(C(F)(F)F)cc1 [Compound I-82, (3R,4S)-4-(4-Trifluorophenyl)-N-(isoquinolin-5-yl)pyrrolidine-3-carboxamide dihydrochloride] | > 50 |
| O=C(Nc1cccc2c(Cl)nccc12)[C@H]1CNC[C@@H]1c1ccccc1 [Compound I-83, (3R,4S)—N-(1-Chloroisoquinolin-5-yl)-4-phenylpyrrolidine-3-carboxamide dihydrochloride] | 1 to 10 |
| Cn1ccc2c(NC(=O)[C@H]3CNC[C@@H]3c3ccccc3)cccc2c1=O [Compound I-84, (3R,4S)—N-(2-Methyl-1-oxo-1,2-dihydroisoquinolin-5-yl)-4-phenylpyrrolidine-3-carboxamide hydrochloride] | > 50 |
| O=C(Nc1cccc2cnccc12)[C@H]1CNC[C@H]1c1ccccc1 [Compound I-88, (3R,4R)—N-(Isoquinolin-5-yl)-4-phenylpyrrolidine-3-carboxamide dihydrochloride] | 1 to 10 |
| O=C(NCc1cccc2cnccc12)[C@@H]1CNC[C@H]1c1ccccc1 [Compound I-95, (3S,4R)—N-(Isoquinolin-5-ylmethyl)-4-phenylpyrrolidine-3-carboxamide dihydrochloride] | 1 to 10 |
| Cc1nccc2c(NC(=O)[C@H]3CNC[C@@H]3c3ccc(C(F)(F)F)cc3)cccc12 [Compound I-96, (3R,4S)—N-(1-Methylisoquinolin-5-yl)-4-[4-(trifluoromethyl)phenyl]pyrrolidine-3-carboxamide dihydrochloride] | 1 to 10 |
| O=C(Nc1ccc(-c2ccc(C(F)(F)F)nc2)cc1)[C@@H]1CNC[C@H]1c1ccccc1 [Compound I-103, (3S,4R)-4-Phenyl-N-[4-[6-(trifluoromethyl)pyridin-3-yl]phenyl]pyrrolidine-3-carboxamide hydrochloride] | < 1 |
| O=C(Nc1ccc(-c2ccc(F)nc2)cc1)[C@@H]1CNC[C@H]1c1ccccc1 [Compound I-108, (3S,4R)—N-[4-(6-Fluoropyridin-3-yl)phenyl]-4-phenylpyrrolidine-3-carboxamide dihydrochloride] | < 1 |
| O=C(Nc1cccc2ccccc12)[C@H]1CNC[C@@H]1c1ccc(C(F)(F)F)cc1 [Compound I-109, (3R,4S)—N-(Naphthalen-1-yl)-4-[4-(trifluoromethyl)phenyl]pyrrolidine-3-carboxamide hydrochloride] | 1 to 10 |
